The text below walks through data of patent publication US20100183714A1, “GASTRORESISTANT PHARMACEUTICAL DOSAGE FORM COMPRISING N-(2-(2- PHTHALIMIDOETHOXY)-ACETYL)-L-ALANYL-D-GLUTAMIC ACID (LK-423)” (priority 2004, published 2010).

The assay relates to ulcerative changes of the ileum, caecum and colon. Briefly: Antiulcerative action in vivo, DSS-induced ulcerative changes in rats. Conditions: 75 mg/kg orally. The source says: Ulcerative changes of ileum, caecum and colon in rats were developed in five days by drinking water containing 2% of sodium dextran sulphate (DSS).
DSS is the compound which after oral administration in an aqueous solution induces inflammatory and ulcerative changes in the mucosa of ileum, caecum and colon in animals.
The animals were randomly assigned to the individual groups.
From experiment day 6 onward the animals were drinking water with 1% DSS. The animals in Group A received the pure compound LK 423 in a dose of 75 mg/kg. The pure compound LK 423 was prepared as suspension in 1% gelatin (Gelatin GE0020, Scharlau) and was given orally via the tube in a volume of 1 ml.
In Group B the animals received the microcapsules comprising LK 423 in a dose of 75 mg/kg (as prepared in Example 1). The microcapsules comprising LK 423 were given orally via the tube dispersed in 1.5 to 2 ml 1% of gelatin.
At baseline the rats had body weight from 220 to 250 g. […] At baseline and on days 6 and 12 the body weight was recorded. For determination of the hematology parameters 1.5 ml blood samples were taken from the periorbital sinus at baseline and on day 5 of the experiment and from the abdominal aorta on day 12. The erythrocyte count and hemoglobin and hematocrit values were performed in the clinical laboratory of the Institute for Health Protection of Ruminants, Faculty of Veterinary Science. […] Throughout the experiment survival of the animals, diarrhea and occurrence of blood in the feces or the intensity of bleeding were also observed. On day 12 the animals were sacrificed under deep ether anesthesia and post-mortem examination was performed. Macroscopic changes in the ileum, caecum and in the colon and the intensity of bleeding were observed.
At autopsy fragments of the intestine were taken from the animals and fixed in 10% formaldehyde; paraffin tissue sections were prepared and stained with hematoxylin and eosin. Pathohistological diagnosis was then performed.
In all groups (both control groups, group A and group B) (Table 3) the tissue damage and a reaction of the surrounding tissue to the damage (level of regeneration) as well as accompanying parameters of the scope of bleeding in the mucosa, hypertrophy of the mucosa with glandular hyperplasia and the degree of epithelialization of the damage surface were assessed. The criteria were as follows:
The Scope of Acute Bleeding with Respect to the Tissue and to the Diameter of the Field of View at 40-Fold Magnification (4 mm): • No bleeding—0 • Small bleeding in the propria and submucosa, with a diameter less than half of the field of view—1 • Moderate bleeding in the propria and submucosa, with a diameter to one half of the field of view—2 • Very extensive bleeding in the propria and submucosa with a diameter greater than half of the field of view—3 • Very extensive bleeding in the propria, submucosa, around the vessels in the tunica muscularis, tunica serosa, and in the supporting tissue—4 Regressive Process—Damage with a Defense Reaction of the Tissue: • No cellular response (no reaction) or the regressive process was no longer active—0 • Moderate cellular infiltration (monocytes, granulocytes, macrophage, histocytes) with karyorrhesis and pyknosis in the mucosa and the submucosa—1 • Severe diffuse cellular infiltration (monocytes, granulocytes, macrophage, histocytes) with karyorrhesis and pyknosis in the mucosa and the submucos—2 • Cellular infiltration (monocytes, granulocytes, macrophage, histocytes) in the demarcation line around the injury—3

As for `C[C@H](NC(=O)COCCN1C(=O)c2ccccc2C1=O)C(=O)N[C@H](CCC(=O)O)C(=O)O` [LK 423, N-(2-(2-phthalimidoethoxy)-acetyl)-L-alanyl-D-glutamic acid], the “Blood in the feces” value is recorded as “+”; the Mortality is recorded as 33%; the “Percent of bleeding animals, Caecum” value is reported as 17; the “Percent of bleeding animals, Colon” value is given as 17. The “Percent of bleeding animals, Ileum” value is 17. Further, for the setting “decrease from baseline”, the “Difference of hematology values from day 0 to 12, Erythrocytes” value is recorded as 1.25 × 10^12/l; the “Difference of hematology values from day 0 to 12, Hematocrit” value is reported as 6.74%; the “Difference of hematology values from day 0 to 12, Hemoglobin” value is on record as 17.2 g/l. Besides, the “Level of bleeding in the mucosa” value (histological score) was found to be 0.6. Where the note is “histological score, day 12”, the “Cellular process in sacrificed animals, Epithelialization” value came out at 2.37; the “Cellular process in sacrificed animals, Hypertrophy of the mucosa” value came to 2.75; the “Cellular process in sacrificed animals, Level of damage” value came out at 1.75; the “Cellular process in sacrificed animals, Level of regeneration” value came to 2.37. Besides, the “regeneration of damages of the intestinal mucosa compared with both control groups” value (pathohistology) is given as “more rapid regeneration”.
